Among the data in PubChem BioAssay AID179 (DTP/NCI, 2004) are EC50, IC50 and outcome values, retold here.

SMILES strings stand for the structures. pEC50, pIC50: −log10 of the molar value. Activity calls are given as the source filed them.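 How the source made its calls: active means compounds giving half or more protection of infected cells from virus-caused growth loss, again on retest; inactive means the rest.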 *1 amine or outer side, *2 acyl side, *3 side chain or, on linkers, in order; H or OH if unused. Where a SMILES comes first, the peptide text is derived from it. [ ]: non-standard residue; d: D form. The star is where a group is joined. X3 = CC(=O)N(C)SCC(N[*:1])C(=O)[*:2]; Cbz = O=C(OCc1ccccc1)*; Bn = c1ccc(C*)cc1; For = O=C* A value given as a limit tells only on which side of the number the result lay.

This assay deals with CEM cells HIV-1 protection, formazan growth assay. The assay is described as follows: NCI AIDS Antiviral Assay. The note with it: for pIC50: measured here: growth of uninfected CEM cells. In outline:
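Soluble formazan readout of cell growth; CEM cells ± HIV-1; 5 drug concs. ≥50% protection → retest; ≥50% again = moderately active; reproducible 100% = confirmed active.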

For the compound `N#C/C(=C\c1ccc(O)c(O)c1)C(=O)NCCCCCNC(=O)/C(C#N)=C/c1ccc(O)c(O)c1`, the pEC50 was under 3.70 and the pIC50 is 4.94.
For `O=c1cc2ccccc2nn1-c1ccccc1Cl` the same measures were under 3.58 and 3.96.
On the same counts, the results for `ClC1=C(Cc2ccccc2)Cc2ccc3c(c21)CCC3` are under 3.70 and under 3.70.
On the same counts, the results for `Cc1cc(Br)cc(C)c1NC(=O)C(=O)C1C(=O)C(CC2C(=O)c3ccccc3C2=O)C(=O)CC1(C)C` (centres undefined) are under 4.74 and under 4.74.
Take `C=C1CN(S(=O)(=O)c2ccc([N+](=O)[O-])cc2)CC(=C)CN(S(=O)(=O)c2ccc([N+](=O)[O-])cc2)C1`: the pEC50 is under 3.70 and the pIC50 was under 3.70.
`COc1ccc(Br)c2c1CC(C(=O)O)CC2` (centres undefined): the pEC50 was under 3.34 and the negative-log IC50 (pIC50) was 3.63.
On the same counts, the results for `[N-]=[N+]=Nc1ccc2c(c1)Sc1ccccc1N2CCCCN1CCN(C(=O)CCNC(=O)Cc2ccc(C(=O)c3ccccc3)cc2)CC1` are under 3.70 and 5.41.
For `Fc1c(F)c(F)c(CSc2nc3ccccc3[nH]2)c(F)c1F` the same measures were under 3.70 and 3.84.
`c1ccc(CN2CCC3(CC2)SSC2(CCN(Cc4ccccc4)CC2)S3)cc1`: the pEC50 is under 4.00 and the pIC50 is 4.06.
For `COc1ccc(-c2coc3cc(OC)c(OC)c(OC)c3c2=O)cc1` the same measures were under 3.70 and under 3.70.
For `O=c1cc(-c2ccccc2)oc2cc(O)c(O)c(O)c12`, the pEC50 is under 3.70 and the pIC50 was 4.65.
Regarding `O=C1N=NC(=O)N1c1cc(C(F)(F)F)cc(C(F)(F)F)c1`, the pEC50 was under 3.70 and the pIC50 was 5.54.
On the same counts, the results for `CSc1c(C#N)c(=O)[nH]c2n[nH]c(C)c12` are under 3.70 and under 3.70.
On the same counts, the results for `COc1cc(/C=C(\C)[N+](=O)[O-])cc(OC)c1` are under 3.70 and 5.47.
On the same counts, the results for `CN(C)c1ccc(C(c2cc3c(cc2O)OCO3)N2CCOCC2)cc1` (centres undefined) are under 4.14 and 4.89.
In the case of `CNc1ccccc1S(=O)(=O)c1ccccc1Cl`, the pEC50 was under 4.20 and the pIC50 is 4.39.
For `Cc1ccc(S(=O)(=O)OC2=C/C(=N\c3onc(C)c3C)c3ccccc3C2=O)cc1` the same measures were under 3.70 and 5.51.
On the same counts, the results for `CCN(CC)C(=S)SNCCc1ccc(S(N)(=O)=O)cc1` are under 3.70 and 4.98.
For the compound `CC(=O)Nc1ccc(C(=O)NN2C(=O)C(Cl)C2c2ccc(O)cc2)cc1` (centres undefined), the pEC50 was under 3.70 and the pIC50 is under 3.70.
For the compound `CCCC1OC(CCC)C2CCCOC2O1` (centres undefined), the pEC50 is under 3.70 and the pIC50 is under 3.70.
Turning to `O=C1CCC2(c3ccccc3)Nc3ccncc3N12` (centres undefined), the pEC50 is under 3.00 and the pIC50 was 3.31.
Turning to `CSc1nc(NC2OC(COC(C)=O)C(OC(C)=O)C(OC(C)=O)C2OC(C)=O)c(-c2csc(N)n2)c(=O)n1C` (centres undefined), the outcome was inactive.
On to `CCOC(=O)NC1C2CC(=O)C(O2)C1OCc1ccccc1` (centres undefined), for which the pEC50 is under 3.51 and the pIC50 was 3.53.
Consider `C1=CCCC=CCC1.C[PH+](C)C.C[PH+](C)C.C[PH+](C)C.[Cl-].[Ir]`, for which the result was inactive.
Still for that read-out and setting: as for `COC(=O)c1c2oc3c(C(=O)OC)cccc3nc-2cc(N)c1=O`, the entry is “inactive”.
Turning to `Nc1ncnc2c1ncn2C1OC(C(O)CO)C(O)C1O` (centres undefined), the pEC50 was under 3.70 and the pIC50 was under 3.70.
With `CCC[CH2][Sn]1([CH2]CCC)[O]CC(c2ccccn2)C[O]1`, the pEC50 was under 4.31 and the pIC50 was 4.97.
For `CCOC(=O)NC(OCCN(C)C)(C(F)(F)F)C(F)(F)F` the same measures were under 3.70 and under 3.70.
On the same counts, the results for `CSc1nc(C)c(Br)c(=O)n1C1OC(COC(C)=O)C(OC(C)=O)C(OC(C)=O)C1OC(C)=O` (centres undefined) are under 3.70 and under 3.70.
On the same counts, the results for `O=C1C=CC2OC(c3ccccc3)C(O)C2O1` (centres undefined) are under 2.97 and 4.94.
As to `CCCCCCCCCCCCC/C=C\[C@@H](OC(=O)c1ccccc1)C(CO)N=[N+]=[N-]` (some centres undefined), the outcome was inactive.
On to `CC(C)=CCN1CCCn2c(=S)[nH]c3cccc(c32)C1`, for which the pEC50 is under 3.70 and the pIC50 is under 3.70.
As to `Cc1ccc2c(c1S)C(=O)c1ccccc1C2=O`, the pEC50 is under 3.93 and the negative logarithm of the IC50 (pIC50) is 4.53.
For `COC1/C=C\OC2(C)Oc3c(C)c(O)c4c(O)c(c(/C=N/N(Cc5ccccc5)C56CC7CC(CC(C7)C5)C6)c(O)c4c3C2=O)NC(=O)/C(C)=C\C=C\C(C)C(O)C(C)C(O)C(C)C(OC(C)=O)C1C` (centres undefined) the same measures were under 3.70 and 5.16.
For `c1cc(NC2=NCCO2)c2c(c1)OCO2` the same measures were under 3.70 and under 3.70.
For `CCCOCC(=O)OC` the same measures were under 2.72 and under 2.72.
Turning to `CC1=CC2=C(OCO1)C(=O)c1ccccc1C2=O`, the outcome was inactive.
`N#C/C(=C\NC(=S)Nc1ccc(S(=O)(=O)Nc2ccccn2)cc1)C(N)=O`: the pEC50 was under 3.70 and the pIC50 is under 3.70.
`O/N=C1\CCCCC1C(NO)c1ccccc1` (centres undefined): the pEC50 was under 3.40 and the negative logarithm of the IC50 (pIC50) is 3.72.
On the same counts, the results for `O=C(Nc1sccc1S(=O)(=O)c1ccccc1)c1ccccc1` are under 4.70 and 4.93.
As to `CCOC(=O)c1cc(-c2ccc(OC)c(OC)c2)c[nH]1`, the pEC50 is under 3.70 and the negative-log IC50 (pIC50) was 4.30.
On to `Cn1c2c(c3ccccc31)CCN=C2C1CCCOC1=O` (centres undefined), for which the pEC50 is under 3.70 and the pIC50 is under 3.70.
As to `CCOC(=O)C1CC=CC(NC(=O)OC(C)(C)C)C1(c1ccccc1)[N+](=O)[O-]` (centres undefined), the outcome was inactive.
In the case of `Cc1ccc(/C=C2\NC(=S)NC2=O)cc1`, the pEC50 is under 3.70 and the pIC50 is under 3.70.
Consider `COc1ccc(C(=O)N/N=C/c2c(C)n(C)n(-c3ccccc3)c2=O)cc1`, for which the pEC50 was under 3.70 and the negative logarithm of the IC50 (pIC50) was under 3.70.
With `CC1C(c2ccccc2)OCN1CC=C(c1ccsc1)c1ccsc1` (centres undefined), the pEC50 was under 3.70 and the pIC50 was 4.82.
On the same counts, the results for `CC(C)(C)c1cc(C(C)(C)C)c(N=O)c(C(C)(C)C)c1` are under 3.70 and under 3.70.
For `CCOC(=O)Nn1c(C)nnc1-c1ccccc1` the same measures were under 3.70 and under 3.70.
On the same counts, the results for `COc1ccc(C2c3cc4c(cc3OC(N3CCOCC3)C2C)OCO4)c(OC)c1OC` (centres undefined) are under 3.70 and 5.02.
`NC(=O)C(=CN1C(=O)CC(=O)NC1=S)C(N)=O`: the pEC50 was under 3.70 and the pIC50 is under 3.70.
Consider `Cc1cccc2c1C(=O)OC2(C)c1cccc2ccccc12` (centres undefined), for which the outcome was inactive.
As to `O=c1[nH]c(=O)n(COCc2ccccc2)c2ccc(Br)cc12`, the pEC50 was under 3.70 and the pIC50 is under 3.70.
Take `O=P(N1CC1)(N1CC1)N1CC2CCC(CC2)C1`: the pEC50 is under 3.70 and the pIC50 is 5.79.
As to `CCCCOC(=O)C1CN2C=CC=NC2=NC1(C(F)(F)F)C(F)(F)F` (centres undefined), the result was inactive.
For the compound `OCC1CC2CC1C1(C2)OCCO1` (centres undefined), the outcome was inactive.
On to `Cc1ccc(C(=O)Nc2ccc(CP(=O)(O)O)cc2CP(=O)(O)O)cc1N`, for which the pEC50 is under 3.76 and the pIC50 was under 3.76.
For `C[PH+](C)CC[PH+](C)CC[PH+](C)C.[C-]#[O+].[C-]#[O+].[C-]#[O+].[Cr]`, the pEC50 was under 5.54 and the pIC50 is under 5.54.
Regarding `O=C1CSC(c2ccccc2Cl)N1N1C(=O)CSC1c1ccccc1Cl` (centres undefined), the pEC50 was under 3.70 and the pIC50 was 4.74.
For `CCOC(=O)c1c2ccc(/C=C/C(=O)OC)ccc-2c(C(=O)OCC)c1N` the same measures were under 4.71 and under 4.71.
For the compound `O=C(O)C1=CN(c2ccncc2)C(c2ccco2)=CC1c1ccccc1[N+](=O)[O-]` (centres undefined), the pEC50 was under 3.70 and the pIC50 was 5.32.
For `CC(=O)N(C)n1cn[n+](CC(=O)OC(C)(C)C)c1` the same measures were under 3.70 and under 3.70.
On the same counts, the results for `CC(=O)N(C)SCC(NC(=O)C(Cc1ccccc1)NC(=O)OCc1ccccc1)C(=O)NC(Cc1ccccc1)C(=O)NC(Cc1cn(C=O)c2ccccc12)C(=O)NC(CCCCNC(=O)OCc1ccccc1)C(=O)NC(C(=O)NC(CSN(C)C(C)=O)C(=O)NC(C(N)=O)C(C)OCc1ccccc1)C(C)OCc1ccccc1` (centres undefined) (Cbz-F[X3]FW(For)K(Cbz)T(Bn)[X3]T(Bn)-NH2; configuration not given here) are under 4.00 and under 4.00.
Turning to `COc1cc(Br)c(/C(=C\c2ccccc2N)C(=O)O)cc1OC`, the outcome was inactive.
Turning to `O=C(c1ccccc1)C(c1ccccc1)C1(O)C(=O)Nc2ccc(Br)cc21` (centres undefined), the pEC50 was under 4.07 and the pIC50 was under 4.07.
For the compound `O=C(OCCN1CCCCCC1)C(c1ccsc1)C1CCCCC1` (centres undefined), the pEC50 was under 3.70 and the pIC50 was 4.45.
On the same counts, the results for `C=CCN1CCC2(CC1)NC(=O)c1ccccc1O2` are under 3.70 and under 3.70.
On the same counts, the results for `O=C(O)c1cc(C(=CCC23CC4CC(CC(C4)C2)C3)c2cc(Cl)c(O)c(C(=O)O)c2)cc(Cl)c1O` are under 3.70 and 3.98.
For `CC(C)(C)OC(=O)N1CCc2[nH][nH]c(=O)c2C1` the same measures were under 3.70 and under 3.70.
Turning to `CC1=C(C(=O)CC(=O)C(=O)Nc2cccc(C)c2C)Sc2ccccc2N1`, the pEC50 was under 3.48 and the pIC50 was under 3.48.
For `O=c1oc2cc(O)ccc2c2[nH]c3cc(O)ccc3c12`, the pEC50 is under 4.01 and the pIC50 is 4.77.
For `COc1cc(OC)cc(-n2c(N)c(C#N)c3ccc([N+](=O)[O-])cc3c2=O)c1` the same measures were under 3.70 and under 3.70.
For `CCC1=CCN(c2ccccn2)OC1c1ccc(OC)cc1` (centres undefined) the same measures were under 4.20 and 4.22.

Broadly, the pEC50 is −log10 of the EC50, conventionally taken in molar units. Broadly, the pIC50 is the IC50 on a negative log10 scale, so that one unit is a factor of ten.
